PMC6768323, “Adverse Maternal, Fetal, and Postnatal Effects of Hexafluoropropylene Oxide Dimer Acid (GenX) from Oral Gestational Exposure in Sprague-Dawley Rats” (Environmental Health Perspectives, 2019)
Values joined by “and” are separate entries in the source; they are usually repeats but may differ in a detail not shown here. Equal values may be shown once.

Experiments:
[1] = HFPO-DA concentrations in maternal serum and fetal plasma; assay type: in vivo, Sprague-Dawley rats
Experimental: Maternal sera from all three blocks and fetal plasma from the third block were analyzed for HFPO-DA concentrations similar to previously reported methods ([McCord et al. 2018]; [Reiner et al. 2009]; [Rushing et al. 2017]). Serum or plasma samples ( 25μL ) were denatured using 0.1M formic acid (FA) followed by a cold ( −20°C ) acetonitrile (ACN) protein crash. The volumes of FA and ACN varied based on the anticipated concentrations of HFPO-DA in the sample ( 0–100 ng HFPO-DA/mL=100μL FA +0.5mL ACN; 100–5,000 ng HFPO-DA/mL=100μL FA +1.0mL ACN; 5,000–200,000 ng HFPO-DA/mL=1.0mL FA added, then 100-μL subsamples removed and crashed with 900μL cold ACN). Samples were vortex mixed after FA and ACN additions then centrifuged at 10,000×g for 5 min and the supernatant removed. Sample extracts were separated using a Waters ACQUITY ultra performance liquid chromatograph (UPLC) (Waters Corporation) fitted with a Waters ACQUITY UPLC BEH C18 column ( 2.1mm×50mm; 1.7μm; 130 Å ). Detection was performed using a Waters Quattro Premier XE tandem quadrupole mass spectrometer in negative ionization mode. A stable isotope of HFPO-DA ( C313 , Wellington Laboratories) was used as an internal standard for quantitation. Separate calibration curves were prepared for the ranges 0–100 ng/mL , 100–5,000 ng/mL , and 5,000–200,000 ng/mL to account for expected concentration differences between control, offspring (fetus/pup), and dam concentrations across the dose range tested.
Serum HFPO-DA concentrations in the mother and the fetus were analyzed as a function of oral dose administered to the mother. We utilized nonlinear regression (exponential one-phase association) to describe the increase and saturation of serum HFPO-DA concentrations across the full oral dose range ( 1–500mg/kg ) for maternal serum. Fetal plasma HFPO-DA concentrations were only analyzed in the low-dose range ( 1–30mg/kg ), which was better described using a linear uptake model. We compared the slopes of the low-dose linear regressions for maternal serum and fetal plasma HFPO-DA concentrations using GraphPad Prism.

[2] = system: pregnant Sprague-Dawley rats; test: Dose-response analyses (EC5) versus maternal serum HFPO-DA concentration; assay type: in vivo
Experimental: Dose–response analyses for the in vitro transactivation assay data and the most sensitive in vivo end points and were conducted using four-parameter logistic regression in GraphPad Prism (constraint to bottom=0% , top=100% ). In vitro luminescence data was normalized to background (vehicle control), log10 transformed, and converted to percentage maximum response based on saturating levels of reference agonist. In vivo data were modeled as a function of log10 -transformed internal dose (i.e., dam serum HFPO-DA concentration from GD18), and response data was normalized to control and presented as a percentage. We estimated effect concentrations equivalent to a 5% deviation from control ( EC5 ). Reduction in maternal serum T3 concentration was modeled by ascribing a concentration of one-half of the detection limit (i.e., 0.1 ng/mL; detection limit of 0.2 ng/mL ) for the dose groups that were below the detection limit.

CV-1 cells = test: MTT cytotoxicity; assay type: cell-based
Experimental: HFPO-DA was assessed for agonism and antagonism of transcriptional activation for estrogen (ER), androgen (AR), and glucocorticoid receptors (GR). Method details for in vitro transactivation assays for ER ([Wilson et al. 2004a]), AR ([Hartig et al. 2002], [2007]), and GR ([Conley et al. 2017]; [Medlock Kakaley et al. 2018]) have been previously reported. Briefly, for ER activity we utilized the stably transfected T47D-KBluc cell line [publicly available via American Type Culture Collection (ATCC); CRL-2865] according to protocols provided by ATCC with the modification of Dulbecco’s Modified Eagle Media (DMEM) as the cell culture media instead of Roswell Park Memorial Institute (RPMI) media. […] All assays were run in 96-well plates and luminescence was detected using a BMG Fluostar Omega luminometer (BMG Labtech) following 24-h exposure. […] Cellular cytotoxicity across the dosing range was determined for CV-1 cells utilizing the 3-(4,5-dimethylthiazol-2-yl)-2,5-diphenyltetrazolium bromide (MTT) dye ([Mosmann 1983]). HFPO-DA was analyzed using n=2–3 biological replicate assay plates (i.e., unique cell passages) with four technical replicates per treatment per plate.

[3] = set-up: method as in DuPont 2017; details: ref DuPont 2017; cited from earlier work

O=C(O)C(F)(OC(F)(F)C(F)(F)C(F)(F)F)C(F)(F)F (stereo not drawn) [HFPO-DA, Hexafluoropropylene oxide dimer acid]
fetal plasma HFPO-DA slope per 1-mg/kg increase in oral maternal dose ([1]; 1-30 mg/kg, linear regression): 0.12 µg/mL and 0.12 ± 0.0094 µg/mL
fetal plasma y-intercept ([1]; 1-30 mg/kg, linear regression): 0.17±0.13
maternal serum HFPO-DA slope per 1-mg/kg increase in oral maternal dose ([1]; 1-30 mg/kg, linear regression): 0.46 µg/mL and 0.46 ± 0.06 µg/mL
maternal serum y-intercept ([1]; 1-30 mg/kg, linear regression): 0.032±0.80
plateau of maternal serum HFPO-DA, exponential one-phase association ([1]; 1-500 mg/kg): 112 ± 15 µg/mL
EC5, maternal serum T3 ([2]; 5% deviation from control, maternal serum HFPO-DA): 3.8 µg/mL
estimated maternal oral dose at T3 EC5 ([2]; linear equation from Figure 5): 8.2 mg/kg
EC5, maternal liver Ehhadh expression ([2]; maternal serum HFPO-DA): 14.1 µg/mL
EC5, maternal liver weight ([2]; maternal serum HFPO-DA): 17.6 µg/mL
EC5, maternal serum T4 ([2]; maternal serum HFPO-DA): 17.8 µg/mL
cytotoxic dose (CV-1 cells): 300 µM
highest detected plasma concentration from a worker [3]: 0.169 µg/mL
